Source: the supplement of paper PMC9663587

How the values were obtained:
YKL-5-124 = compound: C=CC(=O)Nc1ccc(C(=O)Nc2[nH]nc3c2CN(C(=O)N[C@H](CN(C)C)c2ccccc2)C3(C)C)cc1 [YKL-5-124]; assay: increase in dead-cell fraction, 72 h; higher = more death;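 further: breast cancer cell lines in 384-well plates, stained with Hoechst plus LIVE/DEAD far red dye and imaged, cells above an LDR intensity threshold counted dead, Hoechst-negative corpses included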
BSJ-03-123 = compound: CC(=O)c1c(C)c2cnc(Nc3ccc(N4CCN(CCOCCOCCOCCNC(=O)COc5cccc6c5C(=O)N(C5CCC(=O)NC5=O)C6=O)CC4)cn3)nc2n(C2CCCC2)c1=O [BSJ-03-123]; assay: as above
LEE011/Ribociclib = compound: CN(C)C(=O)c1cc2cnc(Nc3ccc(N4CCNCC4)cn3)nc2n1C1CCCC1 [LEE011/Ribociclib]; assay: as above
THZ531 = compound: CN(C)C/C=C/C(=O)Nc1ccc(C(=O)N2CCC[C@@H](Nc3ncc(Cl)c(-c4c[nH]c5ccccc45)n3)C2)cc1 [THZ531]; assay: as above
THZ1 [1] = compound: T1, CN(C)C/C=C/C(=O)Nc1ccc(C(=O)Nc2cccc(Nc3ncc(Cl)c(-c4c[nH]c5ccccc45)n3)c2)cc1 [THZ1]; assay: as above
Flavopiridol = compound: CN1CC[C@H](c2c(O)cc(O)c3c(=O)cc(-c4ccccc4Cl)oc23)[C@H](O)C1 [Flavopiridol]; assay: as above
THZ1 [2] = compound: T1, THZ1; assay: GR value, 72 h; higher = faster growth (1 = untreated, <0 = killing);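 further: breast cancer and non-malignant breast epithelial lines, nine half-log doses, viable cells counted by Hoechst and LIVE/DEAD dye imaging versus time-zero plates and DMSO controls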
[3] = compound: CC(=O)c1c(C)c2cnc(Nc3ccc(N4CCNCC4)cn3)nc2n(C2CCCC2)c1=O; assay: increase in dead-cell fraction, 72 h; higher = more death;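 further: breast cancer cell lines in 384-well plates, stained with Hoechst plus LIVE/DEAD far red dye and imaged, cells above an LDR intensity threshold counted dead, Hoechst-negative corpses included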
[4] = compound: CCN1CCN(Cc2ccc(Nc3ncc(F)c(-c4cc(F)c5nc(C)n(C(C)C)c5c4)n3)nc2)CC1; assay: as above
Neratinib/HKI272 [5] = compound: T2, CCOc1cc2ncc(C#N)c(Nc3ccc(OCc4ccccn4)c(Cl)c3)c2cc1NC(=O)/C=C/CN(C)C [Neratinib/HKI272]; assay: as above
[6] = compound: CCc1cnn2c(NCc3ccc[n+]([O-])c3)cc(N3CCCC[C@H]3CCO)nc12; assay: as above
Neratinib/HKI272 [7] = compound: T2, Neratinib/HKI272; assay: GR value, 72 h; higher = faster growth (1 = untreated, <0 = killing);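 further: breast cancer and non-malignant breast epithelial lines, nine half-log doses, viable cells counted by Hoechst and LIVE/DEAD dye imaging versus time-zero plates and DMSO controls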

MCF10A (GM)
increase in dead-cell fraction (YKL-5-124; 0.001 µM): 0.22 | increase in dead-cell fraction (YKL-5-124; 0.003162 µM): 0.329 | increase in dead-cell fraction (YKL-5-124; 0.01 µM): 0.363 | increase in dead-cell fraction (YKL-5-124; 0.03162 µM): 0.249 | increase in dead-cell fraction (YKL-5-124; 0.1 µM): 0.226 | increase in dead-cell fraction (YKL-5-124; 0.3162 µM): 0.293 | increase in dead-cell fraction (YKL-5-124; 1 µM): 0.263 | increase in dead-cell fraction (YKL-5-124; 3.162 µM): 0.218 | increase in dead-cell fraction (YKL-5-124; 10 µM): 0.391 | increase in dead-cell fraction (BSJ-03-123; 0.001 µM): 0.0019 | increase in dead-cell fraction (BSJ-03-123; 0.003162 µM): -0.0004 | increase in dead-cell fraction (BSJ-03-123; 0.01 µM): 0.0026 | increase in dead-cell fraction (BSJ-03-123; 0.03162 µM): 0.0037 | increase in dead-cell fraction (BSJ-03-123; 0.1 µM): 0.0042 | increase in dead-cell fraction (BSJ-03-123; 0.3162 µM): 0.0033 | increase in dead-cell fraction (BSJ-03-123; 1 µM): 0.0209 | increase in dead-cell fraction (BSJ-03-123; 3.162 µM): 0.0255 | increase in dead-cell fraction (BSJ-03-123; 10 µM): 0.455 | increase in dead-cell fraction (LEE011/Ribociclib; 0.001 µM): 0.0013 | increase in dead-cell fraction (LEE011/Ribociclib; 0.003162 µM): 0.0004 | increase in dead-cell fraction (LEE011/Ribociclib; 0.01 µM): 0.002 | increase in dead-cell fraction (LEE011/Ribociclib; 0.03162 µM): 0.0019 | increase in dead-cell fraction (LEE011/Ribociclib; 0.1 µM): 0.0026 | increase in dead-cell fraction (LEE011/Ribociclib; 0.3162 µM): 0.0035 | increase in dead-cell fraction (LEE011/Ribociclib; 1 µM): 0.0035 | increase in dead-cell fraction (LEE011/Ribociclib; 3.162 µM): 0.0073 | increase in dead-cell fraction (LEE011/Ribociclib; 10 µM): 0.0229 | increase in dead-cell fraction (THZ531; 0.0001 µM): 0.0026 | increase in dead-cell fraction (THZ531; 0.0003162 µM): 0.0015 | increase in dead-cell fraction (THZ531; 0.001 µM): -0.0008 | increase in dead-cell fraction (THZ531; 0.003162 µM): -0.0019 | increase in dead-cell fraction (THZ531; 0.01 µM): 0.0006 | increase in dead-cell fraction (THZ531; 0.03162 µM): 0.0017 | increase in dead-cell fraction (THZ531; 0.1 µM): 0.0028 | increase in dead-cell fraction (THZ531; 0.3162 µM): 0.0137 | increase in dead-cell fraction (THZ531; 1 µM): 0.62 | increase in dead-cell fraction (THZ1 [1]; 0.0001 µM): -0.0002 | increase in dead-cell fraction (THZ1 [1]; 0.0003162 µM): -0.0005 | increase in dead-cell fraction (THZ1 [1]; 0.001 µM): -0.0015 | increase in dead-cell fraction (THZ1 [1]; 0.003162 µM): 0.0003 | increase in dead-cell fraction (THZ1 [1]; 0.01 µM): 0.0067 | increase in dead-cell fraction (THZ1 [1]; 0.03162 µM): 0.127 | increase in dead-cell fraction (THZ1 [1]; 0.1 µM): 0.225 | increase in dead-cell fraction (THZ1 [1]; 0.3162 µM): 0.256 | increase in dead-cell fraction (THZ1 [1]; 1 µM): 0.61 | increase in dead-cell fraction (Flavopiridol; 0.0001 µM): -0.0007 | increase in dead-cell fraction (Flavopiridol; 0.0003162 µM): -0.0019 | increase in dead-cell fraction (Flavopiridol; 0.001 µM): -0.0004 | increase in dead-cell fraction (Flavopiridol; 0.003162 µM): -0.0003 | increase in dead-cell fraction (Flavopiridol; 0.01 µM): 0.0027 | increase in dead-cell fraction (Flavopiridol; 0.03162 µM): 0.0152 | increase in dead-cell fraction (Flavopiridol; 0.1 µM): 0.0701 | increase in dead-cell fraction (Flavopiridol; 0.3162 µM): 0.491 | increase in dead-cell fraction (Flavopiridol; 1 µM): 0.66 | GR value (THZ1 [2]; 0.0001 µM): 0.997 GR | GR value (THZ1 [2]; 0.0003162 µM): 0.998 GR | GR value (THZ1 [2]; 0.001 µM): 0.986 GR | GR value (THZ1 [2]; 0.003162 µM): 0.993 GR | GR value (THZ1 [2]; 0.01 µM): 0.898 GR | GR value (THZ1 [2]; 0.03162 µM): 0.539 GR | GR value (THZ1 [2]; 0.1 µM): 0.23 GR | GR value (THZ1 [2]; 0.3162 µM): 0.0499 GR | GR value (THZ1 [2]; 1 µM): -0.285 GR

HCC1428
increase in dead-cell fraction ([3]; 0.0003162 µM): 0.005 | increase in dead-cell fraction ([3]; 0.001 µM): -0.0004 | increase in dead-cell fraction ([3]; 0.003162 µM): -0.0052 | increase in dead-cell fraction ([3]; 0.01 µM): 0.0068 | increase in dead-cell fraction ([3]; 0.03162 µM): 0.0017 | increase in dead-cell fraction ([3]; 0.1 µM): 0.0007 | increase in dead-cell fraction ([3]; 0.3162 µM): 0.0117 | increase in dead-cell fraction ([3]; 1 µM): 0.0083 | increase in dead-cell fraction ([3]; 3.162 µM): 0.0097 | increase in dead-cell fraction ([4]; 0.001 µM): -0.0074 | increase in dead-cell fraction ([4]; 0.003162 µM): 0.0007 | increase in dead-cell fraction ([4]; 0.01 µM): 0.0093 | increase in dead-cell fraction ([4]; 0.03162 µM): 0.0115 | increase in dead-cell fraction ([4]; 0.1 µM): 0.0154 | increase in dead-cell fraction ([4]; 0.3162 µM): 0.0035 | increase in dead-cell fraction ([4]; 1 µM): 0.0027 | increase in dead-cell fraction ([4]; 3.162 µM): 0.0224 | increase in dead-cell fraction ([4]; 10 µM): 0.0617 | increase in dead-cell fraction (Neratinib/HKI272 [5]; 0.0003162 µM): 0.0076 | increase in dead-cell fraction (Neratinib/HKI272 [5]; 0.001 µM): 0.0073 | increase in dead-cell fraction (Neratinib/HKI272 [5]; 0.003162 µM): 0.0021 | increase in dead-cell fraction (Neratinib/HKI272 [5]; 0.01 µM): -0.0004 | increase in dead-cell fraction (Neratinib/HKI272 [5]; 0.03162 µM): 0.0008 | increase in dead-cell fraction (Neratinib/HKI272 [5]; 0.1 µM): 0.0018 | increase in dead-cell fraction (Neratinib/HKI272 [5]; 0.3162 µM): 0.0002 | increase in dead-cell fraction (Neratinib/HKI272 [5]; 1 µM): 0.0203 | increase in dead-cell fraction (Neratinib/HKI272 [5]; 3.162 µM): 0.217 | increase in dead-cell fraction ([6]; 0.0001 µM): 0.0044 | increase in dead-cell fraction ([6]; 0.0003162 µM): 0.0006 | increase in dead-cell fraction ([6]; 0.001 µM): 0.0016 | increase in dead-cell fraction ([6]; 0.003162 µM): -0.0135 | increase in dead-cell fraction ([6]; 0.01 µM): 0.0043 | increase in dead-cell fraction ([6]; 0.03162 µM): 0.283 | increase in dead-cell fraction ([6]; 0.1 µM): 0.562 | increase in dead-cell fraction ([6]; 0.3162 µM): 0.64 | increase in dead-cell fraction ([6]; 1 µM): 0.687 | GR value (Neratinib/HKI272 [7]; 0.0003162 µM): 1.08 GR | GR value (Neratinib/HKI272 [7]; 0.001 µM): 1.03 GR | GR value (Neratinib/HKI272 [7]; 0.003162 µM): 1.05 GR | GR value (Neratinib/HKI272 [7]; 0.01 µM): 0.992 GR | GR value (Neratinib/HKI272 [7]; 0.03162 µM): 1.1 GR | GR value (Neratinib/HKI272 [7]; 0.1 µM): 0.964 GR | GR value (Neratinib/HKI272 [7]; 0.3162 µM): 0.922 GR | GR value (Neratinib/HKI272 [7]; 1 µM): 0.656 GR | GR value (Neratinib/HKI272 [7]; 3.162 µM): -0.0337 GR

MDAMB157
increase in dead-cell fraction ([3]; 0.0003162 µM): 0.0033 | increase in dead-cell fraction ([3]; 0.001 µM): 0.0064 | increase in dead-cell fraction ([3]; 0.003162 µM): 0.0023 | increase in dead-cell fraction ([3]; 0.01 µM): 0.0015 | increase in dead-cell fraction ([3]; 0.03162 µM): 0.0013 | increase in dead-cell fraction ([3]; 0.1 µM): 0.0006 | increase in dead-cell fraction ([3]; 0.3162 µM): -0.002 | increase in dead-cell fraction ([3]; 1 µM): -0.0042 | increase in dead-cell fraction ([3]; 3.162 µM): -0.0011 | increase in dead-cell fraction ([4]; 0.001 µM): -0.0027 | increase in dead-cell fraction ([4]; 0.003162 µM): -0.0032 | increase in dead-cell fraction ([4]; 0.01 µM): -0.0032 | increase in dead-cell fraction ([4]; 0.03162 µM): 0.0011 | increase in dead-cell fraction ([4]; 0.1 µM): 0.0051 | increase in dead-cell fraction ([4]; 0.3162 µM): 0.0141 | increase in dead-cell fraction ([4]; 1 µM): 0.0387 | increase in dead-cell fraction ([4]; 3.162 µM): 0.0737 | increase in dead-cell fraction ([4]; 10 µM): 0.48 | increase in dead-cell fraction (Neratinib/HKI272 [5]; 0.0003162 µM): 0.0012 | increase in dead-cell fraction (Neratinib/HKI272 [5]; 0.001 µM): 0.0066 | increase in dead-cell fraction (Neratinib/HKI272 [5]; 0.003162 µM): 0.004 | increase in dead-cell fraction (Neratinib/HKI272 [5]; 0.01 µM): -0.0008 | increase in dead-cell fraction (Neratinib/HKI272 [5]; 0.03162 µM): 0.0016 | increase in dead-cell fraction (Neratinib/HKI272 [5]; 0.1 µM): -0.0006 | increase in dead-cell fraction (Neratinib/HKI272 [5]; 0.3162 µM): 0.0073 | increase in dead-cell fraction (Neratinib/HKI272 [5]; 1 µM): -0.0005 | increase in dead-cell fraction (Neratinib/HKI272 [5]; 3.162 µM): 0.032 | increase in dead-cell fraction ([6]; 0.0001 µM): 0 | increase in dead-cell fraction ([6]; 0.0003162 µM): -0.0024 | increase in dead-cell fraction ([6]; 0.001 µM): 0.0008 | increase in dead-cell fraction ([6]; 0.003162 µM): 0.0027 | increase in dead-cell fraction ([6]; 0.01 µM): 0.028 | increase in dead-cell fraction ([6]; 0.03162 µM): 0.41 | increase in dead-cell fraction ([6]; 0.1 µM): 0.781 | increase in dead-cell fraction ([6]; 0.3162 µM): 0.834 | increase in dead-cell fraction ([6]; 1 µM): 0.851 | GR value (Neratinib/HKI272 [7]; 0.0003162 µM): 1.03 GR | GR value (Neratinib/HKI272 [7]; 0.001 µM): 0.981 GR | GR value (Neratinib/HKI272 [7]; 0.003162 µM): 1.04 GR | GR value (Neratinib/HKI272 [7]; 0.01 µM): 1 GR | GR value (Neratinib/HKI272 [7]; 0.03162 µM): 0.921 GR | GR value (Neratinib/HKI272 [7]; 0.1 µM): 0.842 GR | GR value (Neratinib/HKI272 [7]; 0.3162 µM): 0.708 GR | GR value (Neratinib/HKI272 [7]; 1 µM): 0.445 GR | GR value (Neratinib/HKI272 [7]; 3.162 µM): 0.151 GR
